Source: ChEMBL document CHEMBL1201862, “PubChem BioAssay data set” (2004)
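Compound exposure: 48 hours, 5 concentrations, 96-well plates. GI50 marks 50% less growth.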 Active and inactive are the calls of the source. Cut-off read from the data, not from the text of the source: active = GI50 up to about 1.1 µM and inactive = higher.

Columns and labels:
Assay in all cases: NCI anticancer screen, dose series, 48 h
786-0 = test system: 786-0
ACHN = test system: ACHN
BT-549 = test system: BT-549
CCRF-CEM = test system: CCRF-CEM
COLO 205 = test system: COLO 205
EKVX = test system: EKVX
HCT-15 = test system: HCT-15
HL-60 = test system: HL-60
MDA-MB-231 = test system: MDA-MB-231
MDA-MB-435 = test system: MDA-MB-435
MDA-N = test system: MDA-N
MOLT-4 = test system: MOLT-4
Malme-3M = test system: Malme-3M
OVCAR-8 = test system: OVCAR-8
SF-295 = test system: SF-295
SN12C = test system: SN12C
SNB-19 = test system: SNB-19
T47D = test system: T47D
OVCAR-4 = test system: OVCAR-4
TK-10 = test system: TK-10

Structure (SMILES) | GI50 (786-0) | GI50 (ACHN) | GI50 (BT-549) | GI50 (CCRF-CEM) | GI50 (COLO 205) | GI50 (EKVX) | GI50 (HCT-15) [µM] | GI50 (HL-60) | GI50 (MDA-MB-231) | GI50 (MDA-MB-435) | GI50 (MDA-N) | GI50 (MOLT-4) | GI50 (Malme-3M) | GI50 (OVCAR-8) | GI50 (SF-295) | GI50 (SN12C) | GI50 (SNB-19) | GI50 (T47D) | GI50 (OVCAR-4) | GI50 (TK-10)
CC(C)=NNc1cnnc2ccc([N+](=O)[O-])cc12 | 51.3 µM (inactive) | 23.9 µM (inactive) | > 100 µM (inactive) | 32.9 µM (inactive) | 36.6 µM (inactive) | > 100 µM (inactive) | 57.5 | 16.3 µM (inactive) | 59.7 µM (inactive) | 67.8 µM (inactive) | 47.2 µM (inactive) | 37.2 µM (inactive) | 63.8 µM (inactive) | > 100 µM (inactive) | > 100 µM (inactive) | 36.1 µM (inactive) | > 100 µM (inactive) | 65.2 µM (inactive) | – | –
CCOC(=O)C(=O)/C(=C/N1C(=O)CC(=O)NC1=S)C(=O)OCC | > 100 µM (inactive) | > 100 µM (inactive) | > 100 µM (inactive) | > 100 µM (inactive) | > 100 µM (inactive) | > 100 µM (inactive) | > 100 | > 100 µM (inactive) | > 100 µM (inactive) | > 100 µM (inactive) | > 100 µM (inactive) | > 100 µM (inactive) | > 100 µM (inactive) | > 100 µM (inactive) | > 100 µM (inactive) | > 100 µM (inactive) | > 100 µM (inactive) | > 100 µM (inactive) | > 100 µM (inactive) | –
CC1(C)CC[C@]2(C(=O)O)CC[C@]3(C)C(=CC[C@@H]4[C@@]5(C)CC[C@H](OC6OC(CO)C(O)C(O)C6OC6OC(CO)C(O)C(O)C6O)C(C)(C)[C@@H]5CC[C@]43C)[C@@H]2C1 (some centres undefined) | 16.6 µM (inactive) | 18.5 µM (inactive) | 19.5 µM (inactive) | 21.2 µM (inactive) | 15.4 µM (inactive) | 18.5 µM (inactive) | 18 | 21.9 µM (inactive) | 26.4 µM (inactive) | 20 µM (inactive) | 19.6 µM (inactive) | 22.5 µM (inactive) | 15.5 µM (inactive) | 19.4 µM (inactive) | 18.8 µM (inactive) | 18.2 µM (inactive) | 18.3 µM (inactive) | 21.3 µM (inactive) | 16.8 µM (inactive) | –
Cc1cc2c(cc1C)[n+]([O-])c(C(F)(F)F)c(C(=O)c1ccccc1)[n+]2[O-] | 3.47 µM (inactive) | 2.39 µM (inactive) | 5.35 µM (inactive) | 2.02 µM (inactive) | 1.82 µM (inactive) | 0.785 µM (active) | 3.24 | 1.69 µM (inactive) | 2.3 µM (inactive) | 2.69 µM (inactive) | 3.35 µM (inactive) | 1.69 µM (inactive) | 2.39 µM (inactive) | 2.93 µM (inactive) | 2.4 µM (inactive) | 2.74 µM (inactive) | 3.56 µM (inactive) | 0.724 µM (active) | – | 3.3 µM (inactive)
O=C1O[C@H]2[C@@H]3OC(=O)c4cc(O)c(O)c(O)c4-c4c(cc(O)c(O)c4O)C(=O)OC[C@H]2O[C@@H](OC(=O)c2cc(O)c(O)c(O)c2)[C@@H]3OC(=O)c2cc(O)c(O)c3c2[C@@H]2C1=CC(=O)C(O)(O)C2(O)O3 (some centres undefined) | 18.1 µM (inactive) | 31.5 µM (inactive) | 72.8 µM (inactive) | 27 µM (inactive) | 25.9 µM (inactive) | 16.1 µM (inactive) | 21.9 | 20.7 µM (inactive) | 19.8 µM (inactive) | 16.7 µM (inactive) | 16 µM (inactive) | 25.9 µM (inactive) | 84.9 µM (inactive) | 19.5 µM (inactive) | 31.6 µM (inactive) | 16.9 µM (inactive) | 76.9 µM (inactive) | 26.8 µM (inactive) | 15.2 µM (inactive) | –
